Test [1] concerns the target T1, IadC (Variovorax paradoxus, UniProt C5CSP5).
T1 sequence (C5CSP5 1-330): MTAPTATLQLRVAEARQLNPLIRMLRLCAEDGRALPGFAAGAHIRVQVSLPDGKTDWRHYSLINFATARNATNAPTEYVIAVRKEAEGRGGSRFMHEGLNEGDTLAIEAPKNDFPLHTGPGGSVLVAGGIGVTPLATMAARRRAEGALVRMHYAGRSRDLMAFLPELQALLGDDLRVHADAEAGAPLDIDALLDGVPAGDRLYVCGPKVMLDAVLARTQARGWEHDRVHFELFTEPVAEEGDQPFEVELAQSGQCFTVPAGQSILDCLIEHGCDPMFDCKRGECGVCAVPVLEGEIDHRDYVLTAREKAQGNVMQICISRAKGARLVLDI
The test can be described thus: In vitro IAA transformation assay, IadC alone. As to conditions: result in words. Type of test: biochemical, Variovorax paradoxus CL14. As for the experimental part: In vitro assay was performed to test the capability of IadC/D/E enzymes encoded by the iad operon in transforming IAA and analogs. The reaction mixture was composed of 100 mM Tris-HCl (pH7.5), 250 μM reduced NADH, 10 μM ammonium iron (II) sulfate, and 3 μM of each enzyme component. […] The mixture was vortexed periodically to introduce oxygen for the reaction and was boiled to stop the reaction. After pelleting the precipitants, the supernatant was collected and mixed with 2 volumes of Salkowski reagent made of 0.5 M ferric chloride and 35% perchloric acid for the quantification of residual substrate by measuring the adsorption at 530 nm.

The target of test [2] is IadK2 (Variovorax paradoxus, UniProt T1X8R6). The test can be described thus: ITC, auxins binding to IadK2. As for the experimental part: ITC experiments were performed using a MicroCal PEAQ-ITC system (Malvern). All the experiments were performed at […] in a buffer containing 25 mM Tris-HCl (pH 7.5) and 150 mM NaCl (unless otherwise stated). […] Data was analyzed using the MicroCal PEAQ-ITC analysis software. All the measurements were repeated at least 2 times.
For orientation: In ITC the heat of successive injections is recorded.

Test [3] has as its system IadK3 point mutants. The test can be described thus: IAA binding to IadK3 point mutants (response to reviewers). Also noted: species or system Variovorax paradoxus CL14. As to conditions: pocket residues replaced by those of IadK2. An excerpt: We have performed point mutations for substitute residues in the potential ligand binding pocket of AdgA (now named as IadK3) with corresponding amino acids of AdgB (now named as IadK2). […] One potential explanation could be that residues beyond the putative ligand binding pocket may regulate the conformation of IadK3 and ligand binding specificity. Further studies would be required to further examined the ligand binding specificity of IadK3.

Several values for one entry are separate records, joined by “and”; a condition that tells them apart may be missing. Equal entries are not always repeated. Where two headings read alike, the source gives them in different places.

IadK2, sequence (T1X8R6 entry or part of it): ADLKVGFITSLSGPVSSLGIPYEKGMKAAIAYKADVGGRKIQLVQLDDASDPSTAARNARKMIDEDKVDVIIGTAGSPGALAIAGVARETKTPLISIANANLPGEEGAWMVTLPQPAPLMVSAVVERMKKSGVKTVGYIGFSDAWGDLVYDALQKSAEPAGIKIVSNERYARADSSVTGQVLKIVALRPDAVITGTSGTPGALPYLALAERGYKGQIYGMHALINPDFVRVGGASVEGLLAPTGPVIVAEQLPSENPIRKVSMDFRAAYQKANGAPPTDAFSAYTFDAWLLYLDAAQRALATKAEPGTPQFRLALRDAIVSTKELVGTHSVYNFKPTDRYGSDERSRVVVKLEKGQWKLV

Take `O=C(O)Cc1c[nH]c2ccccc12` [IAA, indole-3-acetic acid]: in test [1], the “transformation by IadC alone” value was “neither IadD/E nor IadC alone could catalyze the transformation”. The Kd is 530 ± 80 nM in test [2] (ITC, biphasic isotherm, IadK2 + IAA, mean ± SEM, 3 measurements, read-out: KD1); 9 ± 3.05 nM in test [2] (ITC, biphasic isotherm, IadK2 + IAA, mean ± SEM, 3 measurements, read-out: KD2); 500 nM and 600 nM (2×) in test [2] (IadK2, ITC, replicates, read-out: Kd1); 8.3 nM and 12 nM and 11.4 nM in test [2] (IadK2, ITC, replicates, read-out: Kd2). The “binding of IAA to IadK3 point mutants” value in test [3] was “none of the mutations could make IadK3 bind with IAA”.

These data come from publication PMC10374108, “Structural and biochemical characterization of the key components of an auxin degradation operon from the rhizosphere bacterium Variovorax” (PLOS Biology, 2023).
